In patent US11116757B2 (priority 2015, dated 2021):

molecular target: DCN1-UBC12 interaction (Homo sapiens (Human), UniProt Q96GG9); assay: biochemical; type: binding; conditions: TR-FRET IC50
Sequence (Q96GG9 60-248 limits assumed): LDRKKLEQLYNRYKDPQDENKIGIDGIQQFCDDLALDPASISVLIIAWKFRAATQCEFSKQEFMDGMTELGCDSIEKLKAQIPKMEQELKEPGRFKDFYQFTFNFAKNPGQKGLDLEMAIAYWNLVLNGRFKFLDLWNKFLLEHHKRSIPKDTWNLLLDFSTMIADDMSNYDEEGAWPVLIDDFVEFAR

First: CCCC(C)N1CCC(N(Cc2ccccc2)C(=O)Nc2ccc(F)c(C(F)(F)F)c2)CC1 (stereo not shown) [A57]
Second: CCCC(C)N1CCC(N(Cc2ccccc2)C(=O)Nc2ccc(C(C)(C)C)cc2)CC1 (stereo not shown) [A100]
The IC50 of the first is 4.5-fold lower: 0.315 µM for the first, 1.41 µM for the second. The first is the more potent here.

same assay, conditions: Table 4, commercial compounds; read-out: TR-FRET IC50

`CC(=O)N1CCC(C(=O)Nc2cccc(C)c2C)CC1` [C41] and `CCc1cccc(C)c1NC(=O)C1CCN(C(=O)c2ccccc2Cl)CC1` [C37] cannot be ordered by IC50: over 67.6 µM for the first, over 67.6 µM for the second.

`O=C(Nc1ccc(Cl)cc1Cl)C1CCN(C(=O)c2ccc(F)cc2)CC1` [C15] and `O=C(Nc1ccc(F)cc1)C1CCN(C(=O)c2ccco2)CC1` [C31] cannot be ordered by IC50: over 67.6 µM for the first, over 67.6 µM for the second.

`CCC1CN(C(=O)N2CCC(C(=O)Nc3cccc(Cl)c3)CC2)c2ccccc2O1` (stereo not shown) [C55] and `Cc1ccc(NC(=O)C2CCN(C(=O)c3ccccc3C)CC2)cc1Cl` [C14] cannot be ordered by IC50: over 67.6 µM for the first, over 67.6 µM for the second.

`CCOc1ccc(NC(=O)C2CCN(C(=O)c3ccccc3Cl)CC2)cc1` [C48] and `O=C(Nc1cccc([N+](=O)[O-])c1)C1CCN(C(=O)c2cccc3ccccc23)CC1` [C64] cannot be ordered by IC50: over 67.6 µM for the first, over 67.6 µM for the second.

`O=C(Nc1ccc(C(F)(F)F)cc1)N1CCN(C/C=C/c2ccccc2)CC1` [C13] and `CCc1cccc(NC(=O)C2CCN(C(=O)c3cnn(-c4ccccc4)c3-n3cccc3)CC2)c1` [C69] cannot be ordered by IC50: over 66.3 µM for the first, over 81.4 µM for the second.

With `O=C(Nc1ccc(Cl)c(Cl)c1)C1CCN(C(=O)c2ccco2)CC1` [C40] the IC50 was over 67.6 µM.

same assay, conditions: Table 6, commercial compounds; read-out: TR-FRET IC50

Compared with `Cc1c(C(=O)NCC(C)(C)CN(C)C)cnn1-c1nccc(-c2cccs2)n1` [E47], `CCN1CCN(C(=O)c2cnn(-c3nccc(-c4cccs4)n3)c2C)CC1` [E23] is lower in IC50: over 67.6 µM for the first, 57.9 µM for the second.

`C=CCN(CC=C)C(=O)c1cnn(-c2ncc(C)c(-c3cccs3)n2)c1C` [E48] and `CCCCN(C)C(=O)c1cnn(-c2ncc(C)c(-c3cccs3)n2)c1C` [E42] cannot be ordered by IC50: over 67.6 µM for the first, over 67.6 µM for the second.

`CCOC(=O)CCNC(=O)c1cnn(-c2ncc(C)c(-c3cccs3)n2)c1C` [E56] and `CCN1CCN(C(=O)c2cnn(-c3ncc(C)c(-c4cccs4)n3)c2C2CC2)CC1` [E44] cannot be ordered by IC50: over 67.6 µM for the first, over 67.6 µM for the second.

same assay, conditions: Table 7, commercial compounds; read-out: TR-FRET IC50

`COc1cccc(C2c3c(C)nn(C)c3NC(=O)C2NC(=O)c2cccc(C)c2)c1` (stereo not shown) [F27] and `Cc1nn(C)c2c1C(c1cccc(Cl)c1)C(NC(=O)c1ccc(Cl)cc1)C(=O)N2` (stereo not shown) [F28] cannot be ordered by IC50: over 67.6 µM for the first, over 67.6 µM for the second.

same assay, conditions: read-out: TR-FRET IC50

`O=C(Nc1ccc(C(=O)N2CCOCC2)cc1)Nc1cccc(C(F)(F)F)c1` [B46] and `O=C(c1cccc(C(F)(F)F)c1)N(Cc1ccccc1)C1CC2CCC(C1)N2Cc1ccccc1` (stereo not shown) [A234] cannot be ordered by IC50: over 66.3 µM for the first, over 40.6 µM for the second.

`CCCN1CCC(N(CCOC)C(=O)Nc2cccc(C(F)(F)F)c2)CC1` [A248, 1-(2-Methoxyethyl)-1-(1-Propylpiperidin-4-yl)-3-(3-(Trifluoromethyl)Phenyl)Urea] and `CN1CCC(NC(=O)Nc2cccc(C(F)(F)F)c2)CC1` [B100] cannot be ordered by IC50: over 58.9 µM for the first, over 68.1 µM for the second.

First: CC1CN(Cc2ccccc2)CCC1N(C)C(=O)Nc1cn[nH]c1 (stereo not shown) [B24]
Second: CCCc1ccc(NC(=O)N(Cc2ccccc2)C2CCN(C(C)CCC)CC2)cc1 (stereo not shown) [A66]
The IC50 of the first is higher: over 15.2 µM for the first, 0.47 µM for the second.

`O=C(c1ccc(Br)cc1)N1CCCC(c2nc3ccccc3s2)C1` (stereo not shown) [D27] and `O=C(Nc1cc(F)cc(C(F)(F)F)c1)N(Cc1ccccc1)C1CCN(Cc2cncnc2)CC1` [A210] cannot be ordered by IC50: over 67.6 µM for the first, over 21.7 µM for the second.

Compared with `CCCC(C)N1CCC(N(Cc2ccccc2)C(=O)Nc2cccc(F)c2Cl)CC1` (stereo not shown) [A168], `CCCC(C)N1CCC(N(Cc2ccccc2)C(=O)Nc2ccc(O)c(Cl)c2)CC1` (stereo not shown) [A300] is higher in IC50: 10.6 µM for the first, over 85.8 µM for the second. The first is the more potent here.

Compared with `O=C(NC1CCN(Cc2cccc(F)c2)CC1)C(F)(F)F` [A307], `O=C(Nc1cccc(C(F)(F)F)c1)NC1CCN(Cc2ccc(Cl)cc2)CC1` [A186, 1-(1-(4-Chlorobenzyl)Piperidin-4-yl)-3-(3-(Trifluoromethyl)Phenyl)Urea] is lower in IC50: over 98.1 µM for the first, 33.4 µM for the second. The second is the more potent here.

Going from `CCCC(C)N1CCC(N(Cc2ccccc2)C(=O)Nc2ccc(Cl)cc2C#N)CC1` (stereo not shown) [A141] to `C#Cc1ccccc1CN1CCC(N(Cc2ccccc2)C(=O)Nc2cc(F)cc(C(F)(F)F)c2)CC1` [A123], the IC50 falls from 4.22 µM to 1.13 µM (3.7-fold). The second is the more potent here.

`CCCC(C)N1CCC(N(Cc2ccccc2)C(=O)Nc2c(C(C)C)cccc2C(C)C)CC1` (stereo not shown) [A173] and `O=C(Nc1cccc(C(F)(F)F)c1)NC1CCN(Cc2ccc(F)cc2)CC1` [A172, 1-(1-(4-Fluorobenzyl)Piperidin-4-yl)-3-(3-(Trifluoromethyl)Phenyl)Urea] are within 1.5-fold of each other in IC50: 13.1 µM for the first, 12.9 µM for the second.

Compared with `CC(C1CCCC1)N1CCC(N(Cc2ccccc2)C(=O)Nc2cc(F)cc(C(F)(F)F)c2)CC1` (stereo not shown) [A279], `CCCC(C)N1CCC(N(Cc2ccccc2)C(=O)Nc2ccc(OC)cc2)CC1` (stereo not shown) [A158] is lower in IC50: over 7.78 µM for the first, 7.67 µM for the second. The second is the more potent here.

Compared with `C=CC(=O)NCCCN(C(=O)Nc1cccc(C(F)(F)F)c1)C1CCN(C(C)CCC)CC1` (stereo not shown) [drawing 834], `Cc1cccc(CC(=O)NC2CCN(Cc3ccccc3)CC2)c1` [B21] is lower in IC50: 3.33 µM for the first, under 0.0041 µM for the second. The second is the more potent here.

Compared with `C=CC(=O)NCCN(C(=O)Nc1cccc(C(F)(F)F)c1)C1CCN(C(C)CCC)CC1` (stereo not shown) [drawing 835], `CCN1CCC(N(Cc2ccco2)C(=O)Nc2ccc(C)c(Cl)c2)CC1` [B6] is 4.9-fold lower in IC50: 33.8 µM for the first, 6.85 µM for the second.

Going from `O=C(Nc1cccc(F)c1)NC1CCN(Cc2ccccc2)CC1` [B64] to `Cc1ccc(CN(C(=O)Nc2cccc(C(F)(F)F)c2)C2CCN(Cc3ccccc3)CC2)o1` [B1], the IC50 falls from over 67.6 µM to 2.73 µM.

Compared with `CCCC(C)N1CCC(N(Cc2ccccc2)C(=O)Nc2cc(S(F)(F)(F)(F)F)ccc2F)CC1` (stereo not shown) [A107], `CCCN1CCC(NC(=O)Nc2cccc(Cl)c2)CC1` [B117] is higher in IC50: 2.05 µM for the first, over 77.1 µM for the second. The first is the more potent here.

Going from `CCCCN1CCC(N(Cc2ccccc2)C(=O)Nc2cccc(C)c2)CC1` [A95] to `COc1ccc(CN(C(=O)Nc2ccc(Cl)cc2)C2CCN(C(C)=O)CC2)cc1` [B81], the IC50 rises from 1.32 µM to over 67.6 µM. The first is the more potent here.

Compared with `COc1cccc(C(=O)N2CCC(c3nc4ccccc4s3)CC2)c1` [D14], `CCOc1ccccc1NC(=O)N(Cc1ccc(C)o1)C1CCN(Cc2ccccc2)CC1` [B92] is higher in IC50: 66.4 µM for the first, over 67.6 µM for the second.

`CCCC(C)N1CCC(N(Cc2ccccc2)C(=O)Nc2cccc(N3CCOCC3)c2)CC1` (stereo not shown) [A297] and `COc1cc(C(=O)N2CCCC(c3nc4ccccc4s3)C2)cc(OC)c1OCC(N)=O` (stereo not shown) [D24] cannot be ordered by IC50: over 83.6 µM for the first, over 67.6 µM for the second.

Compared with `CCCN1CCC(N(CCC(C)C)C(=O)Nc2cccc(C(F)(F)F)c2)CC1` [A130, 1-Isopentyl-1-(1-Propylpiperidin-4-yl)-3-(3-(Trifluoromethyl)Phenyl)Urea], `Cc1ccc(CN(C(=O)Nc2ccccc2F)C2CCN(Cc3ccccc3)CC2)o1` [B94] is higher in IC50: 2.96 µM for the first, over 67.6 µM for the second. The first is the more potent here.

First: CC(C1CCCCC1)N1CCC(N(Cc2ccccc2)C(=O)Nc2cc(F)cc(C(F)(F)F)c2)CC1 (stereo not shown) [A125]
Second: Cc1cccc(C(=O)N2CCC(c3nc4ccccc4s3)CC2)c1 [D4]
The IC50 of the first is 10-fold lower: 1.77 µM for the first, 18 µM for the second.

Going from `CCOc1ccc(C(=O)N2CCCC(c3nc4ccccc4s3)C2)cc1` (stereo not shown) [D25] to “1-Benzyl-1-(1-(Cyclopropylmethyl)Piperidin-4-yl)-3-(3-(Trifluoromethyl)Phenyl)Urea [A30]”, the IC50 falls from over 67.6 µM to 0.178 µM.

`CCc1ccc(NC(=O)NC2CCN(Cc3ccccc3)CC2)cc1` [B52] and `CCCCN1CCC(N(Cc2ccccc2)C(=O)Nc2cncc(C(F)(F)F)c2)CC1` [A262] cannot be ordered by IC50: over 67.6 µM for the first, over 63.4 µM for the second.

`O=C(Nc1cc(F)cc(C(F)(F)F)c1)N(Cc1ccccc1)C1CCN(Cc2cc(F)c(F)c(F)c2)CC1` [A206] and `O=C(NC1CCN(Cc2ccccc2)CC1)NC1CCC2(CC1)OCCO2` [B26] cannot be ordered by IC50: over 20.9 µM for the first, over 165 µM for the second.

`Cn1nccc1-c1cccc(NC(=O)NC2CCN(Cc3ccccc3)CC2)c1` [A263, 1-(1-Benzylpiperidin-4-yl)-3-(3-(1-Methyl-1H-Pyrazol-5-yl)Phenyl)Urea] and `COCCn1ccc(NC(=O)NC2CCN(Cc3ccccc3)CC2)n1` [B35] cannot be ordered by IC50: over 64.6 µM for the first, over 55.9 µM for the second.

First: FC(F)(F)c1ccnc(NC2CCN(Cc3ccccc3)CC2)n1 [B124]
Second: CCCC(C)N1CCC(N(Cc2cccc(CNC(=O)CCl)c2)C(=O)Nc2cccc(C(F)(F)F)c2)CC1 (stereo not shown) [drawing 847]
The IC50 of the first is higher: over 90.4 µM for the first, under 0.01 µM for the second. The second is the more potent here.

Compared with `O=C(c1ccc(F)cc1F)N1CCC(c2nc3ccccc3s2)CC1` [D11], `CCCC(C)N1CCC(N(Cc2ccccc2)C(=O)Nc2cc(F)c(F)c(F)c2)CC1` (stereo not shown) [A59] is 86-fold lower in IC50: 30.6 µM for the first, 0.355 µM for the second.

Compared with `CCCC(C)N1CCC(N(Cc2ccccc2)C(=O)Nc2ccc(SC(F)(F)F)cc2)CC1` (stereo not shown) [A14], `CCCN1CCC(N(CC2CCCCC2)C(=O)Nc2cccc(C(F)(F)F)c2)CC1` [A92, 1-(Cyclohexylmethyl)-1-(1-Propylpiperidin-4-yl)-3-(3-(Trifluoromethyl)Phenyl)Urea] is 14-fold higher in IC50: 0.0853 µM for the first, 1.23 µM for the second. The first is the more potent here.

Compared with `COc1cc(C(=O)N2CCC(c3nc4ccccc4s3)CC2)cc(OC)c1Br` [D1], `CCN1CCC(N(Cc2ccco2)C(=O)Nc2ccc(OC)cc2)CC1` [B79] is higher in IC50: 2.31 µM for the first, over 67.6 µM for the second. The first is the more potent here.

`O=C(Nc1cccc(C(F)(F)F)c1)N[C@H]1CCN(Cc2ccccc2)C[C@@H]1OC(=O)Nc1cccc(C(F)(F)F)c1` [A249] and `CCCC(C)N1CCC(N(Cc2ccccc2)C(=O)Nc2cccc3cnccc23)CC1` (stereo not shown) [A244] cannot be ordered by IC50: over 59.6 µM for the first, over 53.6 µM for the second.

`COc1ccc(C)cc1NC(=O)N(Cc1ccc(C)o1)C1CCN(Cc2ccccc2)CC1` [B95] and `O=C(Nc1cccc(C(F)(F)F)c1)NC1CCN(C(=O)c2ccccc2)CC1` [A306, 1-(1-Benzoylpiperidin-4-yl)-3-(3-(Trifluoromethyl)Phenyl)Urea] cannot be ordered by IC50: over 67.6 µM for the first, over 98.1 µM for the second.

Going from `O=C(NCC(=O)N1CCC(c2nc3ccccc3s2)CC1)c1cccc(F)c1` [D23] to `CCCC(C)N1CCC(N(Cc2ccccc2)C(=O)Nc2cccc(C)c2)CC1` (stereo not shown) [A82], the IC50 falls from over 67.6 µM to 0.883 µM. The second is the more potent here.

Going from `COc1cc(OC)cc(C(=O)N2CCC(c3nc4ccccc4s3)CC2)c1` [D22] to `CCCC(C)N1CCC(N(Cc2ccccc2)C(=O)Nc2cccc(OC(F)(F)F)c2)CC1` (stereo not shown) [A12], the IC50 falls from over 67.6 µM to 0.0827 µM. The second is the more potent here.

`O=C(Nc1ccc2c(c1)OCO2)NC1CCN(Cc2ccccc2)CC1` [B22] and `O=C(Nc1cccc(CN2CCOCC2)c1)NC1CCN(Cc2ccccc2)CC1` [A276, 1-(1-Benzylpiperidin-4-yl)-3-(3-(Morpholinomethyl)Phenyl)Urea] cannot be ordered by IC50: over 103 µM for the first, over 68.7 µM for the second.

`CCCC(C)N1CCC(N(Cc2ccccc2)C(=O)Nc2cc(F)c(F)cc2F)CC1` (stereo not shown) [A166] and `CCCC(C)N1CCC(N(Cc2ccccc2)C(=O)Nc2cc(Cl)ccc2F)CC1` (stereo not shown) [A159] are within 1.5-fold of each other in IC50: 10.1 µM for the first, 7.72 µM for the second.
